This passage reports Activity results from ChEMBL document CHEMBL2074408, “Altered pharmacokinetics of vinblastine in Mdr1a P-glycoprotein-deficient Mice” (J Natl Cancer Inst, 1996).

This data set has as its target ATP-dependent translocase ABCB1 (Mus musculus, UniProt P21447). In words: TP_TRANSPORTER: increase in brain concentration in mdr1a(-/-) mouse. It is filed as functional, organism-based. As to conditions: in vivo.

ATP-dependent translocase ABCB1, sequence (P21447 whole entry): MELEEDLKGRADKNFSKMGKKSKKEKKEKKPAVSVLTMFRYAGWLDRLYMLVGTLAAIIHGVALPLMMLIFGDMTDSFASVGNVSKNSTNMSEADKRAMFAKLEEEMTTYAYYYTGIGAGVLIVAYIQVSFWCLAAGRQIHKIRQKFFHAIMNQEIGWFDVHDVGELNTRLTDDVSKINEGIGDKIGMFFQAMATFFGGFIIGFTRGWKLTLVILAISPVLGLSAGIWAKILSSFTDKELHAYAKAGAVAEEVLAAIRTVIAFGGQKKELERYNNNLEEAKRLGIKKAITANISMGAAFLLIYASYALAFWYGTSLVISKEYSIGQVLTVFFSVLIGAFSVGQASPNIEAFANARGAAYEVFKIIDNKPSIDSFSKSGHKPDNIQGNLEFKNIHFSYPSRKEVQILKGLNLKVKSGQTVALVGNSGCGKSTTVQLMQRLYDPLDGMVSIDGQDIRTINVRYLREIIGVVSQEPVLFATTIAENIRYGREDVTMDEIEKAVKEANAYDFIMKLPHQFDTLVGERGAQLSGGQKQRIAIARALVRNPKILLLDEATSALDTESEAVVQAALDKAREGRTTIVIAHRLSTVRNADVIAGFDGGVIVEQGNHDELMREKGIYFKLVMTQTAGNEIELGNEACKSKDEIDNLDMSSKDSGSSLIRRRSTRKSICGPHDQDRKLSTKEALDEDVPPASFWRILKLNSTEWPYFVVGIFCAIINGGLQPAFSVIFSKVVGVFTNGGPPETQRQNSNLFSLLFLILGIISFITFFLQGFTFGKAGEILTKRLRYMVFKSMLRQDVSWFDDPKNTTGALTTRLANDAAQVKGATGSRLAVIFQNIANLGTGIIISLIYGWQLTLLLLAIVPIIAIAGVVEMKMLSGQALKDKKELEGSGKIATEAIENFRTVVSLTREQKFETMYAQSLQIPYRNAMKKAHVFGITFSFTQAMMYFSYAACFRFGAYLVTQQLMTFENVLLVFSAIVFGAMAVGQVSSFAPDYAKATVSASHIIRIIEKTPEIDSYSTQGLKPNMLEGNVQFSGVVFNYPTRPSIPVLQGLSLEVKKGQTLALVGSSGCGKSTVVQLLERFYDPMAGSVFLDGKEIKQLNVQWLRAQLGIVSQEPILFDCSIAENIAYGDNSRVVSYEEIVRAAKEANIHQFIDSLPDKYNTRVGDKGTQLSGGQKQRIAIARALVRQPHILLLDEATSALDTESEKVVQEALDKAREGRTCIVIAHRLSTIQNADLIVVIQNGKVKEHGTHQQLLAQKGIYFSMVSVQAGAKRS

Consider `CC[C@]1(O)C[C@H]2CN(CCc3c([nH]c4ccccc34)[C@@](C(=O)OC)(c3cc4c(cc3OC)N(C=O)[C@H]3[C@@](O)(C(=O)OC)[C@H](OC(C)=O)[C@]5(CC)C=CCN6CC[C@]43[C@@H]65)C2)C1` [VINCRISTINE], for which the Activity result was “substrate [+]”.
